Measurements from US8865623B2, “Herbicidally active cyclic diones and derivatives thereof, processes for their preparation, compositions, and method of controlling weeds” (Syngenta Limited, priority 2009, dated 2014).

Legend:
Type in all cases: in vivo
[1] = system: Alopecurus myosuroides (ALOMY); assay: Pre-emergence herbicidal activity, glasshouse pot test; conditions: Alopecurus myosuroides, 312 h; Rate 250 g/ha; pre-emergence spray; evaluated after 13 days; read-out: Pre-emergence activity ALOMY (100=total damage to plant; 0=no damage to plant)
Outline: (§1)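 Pot-grown plants in standard soil received a spray one day post-sowing (pre-emergence) or after eight days' growth (post-emergence). Scoring took place 13 days later on a 0–100 scale, 100 meaning total damage.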

[2] = system: Avena fatua (AVEFA); assay: as above; conditions: Avena fatua, 312 h; Rate 250 g/ha; pre-emergence spray; evaluated after 13 days; read-out: Pre-emergence activity AVEFA (100=total damage to plant; 0=no damage to plant)
Outline: as §1

[3] = system: Echinochloa crus-galli (ECHCG); assay: as above; conditions: Echinochloa crus-galli, 312 h; Rate 250 g/ha; pre-emergence spray; evaluated after 13 days; read-out: Pre-emergence activity ECHCG (100=total damage to plant; 0=no damage to plant)
Outline: as §1

[4] = system: Lolium perenne (LOLPE); assay: as above; conditions: Lolium perenne, 312 h; Rate 250 g/ha; pre-emergence spray; evaluated after 13 days; read-out: Pre-emergence activity LOLPE (100=total damage to plant; 0=no damage to plant)
Outline: as §1

[5] = system: Alopecurus myosuroides (ALOMY); assay: Post-emergence herbicidal activity, glasshouse pot test; conditions: Alopecurus myosuroides, 312 h, rate 250 g/ha, evaluated after 13 days, glasshouse, read-out: Post-emergence activity ALOMY (100=total damage to plant; 0=no damage to plant)
Outline: as §1

[6] = system: Avena fatua (AVEFA); assay: as above; conditions: Avena fatua, 312 h, rate 250 g/ha, evaluated after 13 days, glasshouse, read-out: Post-emergence activity AVEFA (100=total damage to plant; 0=no damage to plant)
Outline: as §1

[7] = system: Echinochloa crus-galli (ECHCG); assay: as above; conditions: Echinochloa crus-galli, 312 h, rate 250 g/ha, evaluated after 13 days, glasshouse, read-out: Post-emergence activity ECHCG (100=total damage to plant; 0=no damage to plant)
Outline: as §1

[8] = system: Lolium perenne (LOLPE); assay: as above; conditions: Lolium perenne, 312 h, rate 250 g/ha, evaluated after 13 days, glasshouse, read-out: Post-emergence activity LOLPE (100=total damage to plant; 0=no damage to plant)
Outline: as §1

Row | SMILES | pest or weed control at 250 g/ha [1] [%] | pest or weed control at 250 g/ha [2] [%] | pest or weed control at 250 g/ha [3] [%] | pest or weed control at 250 g/ha [4] [%] | pest or weed control at 250 g/ha [5] [%] | pest or weed control at 250 g/ha [6] [%] | pest or weed control at 250 g/ha [7] [%] | pest or weed control at 250 g/ha [8] [%]
1 | CCc1ccc(Oc2ncc(C(F)(F)F)cc2C(F)(F)F)cc1C1=C(O)CC2(CCOCC2)CC1=O [Example A-269] | 100 | 80 | 100 | 90 | 90 | 90 | 100 | 70
2 | CCc1ccc(Oc2ccc(C#N)cc2F)cc1C1=C(O)CC2(CCOCC2)CC1=O [Example A-270] | 90 | 60 | 100 | 90 | 90 | 90 | 100 | 70
3 | CCc1ccc(Oc2ccc(C(F)(F)F)cc2Cl)cc1C1=C(O)CC2(CCOCC2)CC1=O [Example A-271] | 90 | 50 | 100 | 90 | 90 | 90 | 100 | 70
4 | CCc1ccc(Oc2ncc(C(F)(F)F)cc2Cl)cc1C1=C(O)CC2(CCOCC2)CC1=O [Example A-272] | 100 | 100 | 100 | 100 | 90 | 90 | 100 | 70
5 | CCc1ccc(Oc2ncc(C(F)(F)F)cc2F)cc1C1=C(O)CC2(CCOCC2)CC1=O [Example A-273] | 100 | 100 | 100 | 100 | 100 | 100 | 100 | 100
6 | CCc1ccc(Oc2ncc(Cl)cc2F)cc1C1=C(O)CC2(CCOCC2)CC1=O [Example A-274] | 100 | 100 | 100 | 100 | 100 | 100 | 100 | 100
7 | CCc1ccc(Oc2ncc(Cl)cc2Cl)cc1C1=C(O)CC2(CCOCC2)CC1=O [Example A-275] | 100 | 90 | 100 | 100 | 90 | 100 | 100 | 100
8 | CCc1ccc(Oc2ccc([N+](=O)[O-])c(Cl)c2)cc1C1=C(O)CC2(CCOCC2)CC1=O [Example A-276] | 40 | 10 | 100 | 70 | 60 | 10 | 100 | 40
9 | CCc1ccc(Oc2ccc(C#N)c(Cl)c2)cc1C1=C(O)CC2(CCOCC2)CC1=O [Example A-277] | 30 | 30 | 100 | 100 | 30 | 80 | 100 | 100
10 | CCc1ccc(Oc2ccc(C(F)(F)F)c(Cl)c2)cc1C1=C(O)CC2(CCOCC2)CC1=O [Example A-278] | 60 | 70 | 0 | 70 | 100 | 100 | 100 | 100
